pKi: −log10 of the molar value.
Assays:
Assay in all cases: CA Activity Assay
Settings in all cases: pH 7.4
[1] = biological target: Carbonic anhydrase 1 (Homo sapiens, UniProt P00915)
Method: (§1) The enzymatic reaction, in a total volume of 3.0 mL, contained 1.4-mL 0.05-M Tris SO4 buffer (pH 7.4), 1-mL 3-mM 4-NPA, 0.5-mL H2O and 0.1-mL enzyme solution. A reference measurement was obtained by preparing the same cuvette without enzyme solution. The inhibitory effects of the phenolic compounds were examined. All compounds were tested in triplicate at each concentration used. Different concentrations of the compounds were used.

[2] = biological target: Carbonic anhydrase 2 (Homo sapiens, UniProt P00918)
Method: as §1

[3] = biological target: Carbonic anhydrase 6 (Homo sapiens, UniProt P23280)
Method: as §1

Sequence of Carbonic anhydrase 1 (P00915 whole entry): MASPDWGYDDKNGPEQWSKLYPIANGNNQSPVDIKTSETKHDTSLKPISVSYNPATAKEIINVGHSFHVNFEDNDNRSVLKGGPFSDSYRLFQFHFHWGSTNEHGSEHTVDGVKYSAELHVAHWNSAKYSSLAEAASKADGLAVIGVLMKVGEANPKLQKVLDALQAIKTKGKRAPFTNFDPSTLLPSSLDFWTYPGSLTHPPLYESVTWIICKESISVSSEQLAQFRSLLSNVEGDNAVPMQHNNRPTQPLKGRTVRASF
Sequence of Carbonic anhydrase 6 (P23280 whole entry): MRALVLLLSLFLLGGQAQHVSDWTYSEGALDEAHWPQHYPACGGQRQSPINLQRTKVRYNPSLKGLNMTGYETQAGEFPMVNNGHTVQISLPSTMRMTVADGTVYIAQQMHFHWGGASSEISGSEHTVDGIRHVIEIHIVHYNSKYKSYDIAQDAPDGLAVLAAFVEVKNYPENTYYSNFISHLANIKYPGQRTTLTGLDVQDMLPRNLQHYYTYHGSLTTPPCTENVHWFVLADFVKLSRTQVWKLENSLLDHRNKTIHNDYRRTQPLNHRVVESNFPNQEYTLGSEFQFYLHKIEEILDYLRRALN

Row | pKi [1] | pKi [2] | pKi [3] | Compound
1 | 4.74 | 5.84 | 4.94 | O=C(c1ccc(O)c(O)c1)c1ccc(O)c(O)c1 [Bis(3,4-dihydroxyphenyl)methanone]
2 | 3.39 | 4.32 | 3.53 | COc1ccc(C(=O)c2ccc(OC)c(OC)c2)cc1OC [hCA inhibitor, 2]

From BindingDB's records for doi:10.3109/14756366.2011.596836 (Artvin Coruh University, 2012)
